Assays:
morningglory [1] = experiment: Test A postemergence; format: in vivo, Ipomoea spp.; conditions: 0 to 100 scale where 0 is no effect and 100 is complete control; for Morningglory plant response rating: 125 g ai/ha; for Plant response rating, Morningglory: 500 g ai/ha
Description: (§1) Seeds of plant species selected from barnyardgrass (Echinochloa crus-galli), kochia (Kochia scoparia), ragweed (common ragweed, Ambrosia elatior), Italian ryegrass (Lolium multiflorum), large (Lg) crabgrass (Digitaria sanguinalis), giant foxtail (Setaria faberii), morningglory (Ipomoea spp.), pigweed (Amaranthus retroflexus), velvetleaf (Abutilon theophrasti), wheat (Triticum aestivum), and corn (Zea mays) were planted into a blend of loam soil and sand and treated preemergence with a directed soil spray using test chemicals formulated in a non-phytotoxic solvent mixture which included a surfactant.
(§2) At the same time, plants selected from these crop and weed species and also blackgrass (Alopecurus myosuroides), and galium (catchweed bedstraw, Galium aparine) were planted in pots containing the same blend of loam soil and sand and treated with postemergence applications of test chemicals formulated in the same manner. Plants ranged in height from 2 to 10 cm and were in the one- to two-leaf stage for the postemergence treatment. Treated plants and untreated controls were maintained in a greenhouse for approximately 10 days, after which time all treated plants were compared to untreated controls and visually evaluated for injury. Plant response ratings, summarized in Table A, are based on a 0 to 100 scale where 0 is no effect and 100 is complete control. A dash (-) response means no test result.

wheat [2] = experiment: Test A postemergence; format: in vivo, Triticum aestivum; conditions: 0 to 100 scale where 0 is no effect and 100 is complete control; for Wheat plant response rating: 125 g ai/ha; for Plant response rating, Wheat: 500 g ai/ha
Outline: (§3)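 Greenhouse pot test, loam/sand soil. Formulation: non-phytotoxic solvent mix plus surfactant. Pre: directed spray onto soil after sowing. Post: plants at 1–2 leaf, 2–10 cm. Rated visually vs untreated controls at ~10 d, 0 (no effect) to 100 (complete control).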

corn [3] = experiment: Test A postemergence; format: in vivo, Zea mays; conditions: 0 to 100 scale where 0 is no effect and 100 is complete control; for Corn plant response rating: 125 g ai/ha; for Plant response rating, Corn: 500 g ai/ha
Outline: as §3

rice = experiment: Test B flooded paddy test; format: in vivo, Oryza sativa; conditions: Flood, 250 g ai/ha; 0 to 100 scale where 0 is no effect and 100 is complete control
Description: (§4) Plant species in the flooded paddy test selected from rice (Oryza sativa), sedge, umbrella (small-flower umbrella sedge, Cyperus difformis), (Heteranthera limosa), and barnyardgrass (Echinochloa crus-galli) were grown to the 2-leaf stage for testing. At time of treatment, test pots were flooded to 3 cm above the soil surface, treated by application of test compounds directly to the paddy water, and then maintained at that water depth for the duration of the test. Treated plants and controls were maintained in a greenhouse for 13 to 15 days, after which time all species were compared to controls and visually evaluated. Plant response ratings, summarized in Table B, are based on a scale of 0 to 100 where 0 is no effect and 100 is complete control. A dash (-) response means no test result.

wheat [4] = experiment: Test A preemergence; format: in vivo, Triticum aestivum; conditions: for Wheat plant response rating (0 to 100 scale): 125 g ai/ha; for Wheat plant response rating: 500 g ai/ha, 0 to 100 scale where 0 is no effect and 100 is complete control
Description: as §1, §2

giant foxtail [5] = experiment: Test A preemergence; format: in vivo, Setaria faberii; conditions: for Foxtail, Giant plant response rating (0 to 100 scale): 125 g ai/ha; for Foxtail, Giant plant response rating: 500 g ai/ha, 0 to 100 scale where 0 is no effect and 100 is complete control
Description: as §1, §2

large (Lg) crabgrass [6] = experiment: Test A postemergence; format: in vivo, Digitaria sanguinalis; conditions: 0 to 100 scale where 0 is no effect and 100 is complete control; for Crabgrass, Large plant response rating: 125 g ai/ha; for Plant response rating, Crabgrass, Large: 500 g ai/ha
Outline: as §3

corn [7] = experiment: Test A preemergence; format: in vivo, Zea mays; conditions: for Corn plant response rating (0 to 100 scale): 125 g ai/ha; for Corn plant response rating: 500 g ai/ha, 0 to 100 scale where 0 is no effect and 100 is complete control
Description: as §1, §2

large (Lg) crabgrass [8] = experiment: Test A preemergence; format: in vivo, Digitaria sanguinalis; conditions: for Crabgrass, Large plant response rating (0 to 100 scale): 125 g ai/ha; for Crabgrass, Large plant response rating: 500 g ai/ha, 0 to 100 scale where 0 is no effect and 100 is complete control
Outline: as §3

velvetleaf [9] = experiment: Test A postemergence; format: in vivo, Abutilon theophrasti; conditions: 0 to 100 scale where 0 is no effect and 100 is complete control; for Velvetleaf plant response rating: 125 g ai/ha; for Plant response rating, Velvetleaf: 500 g ai/ha
Description: as §1, §2

Heteranthera limosa = experiment: Test B flooded paddy test; format: in vivo; conditions: Flood, 250 g ai/ha; 0 to 100 scale where 0 is no effect and 100 is complete control
Outline: (§5)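 Plants at 2-leaf stage; pots flooded to 3 cm above soil and compound applied directly into paddy water, depth held throughout. After 13 to 15 days in greenhouse, visual rating versus controls on 0 (no effect) to 100 (complete control) scale.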

pigweed [10] = experiment: Test A preemergence; format: in vivo, Amaranthus retroflexus; conditions: for Pigweed plant response rating (0 to 100 scale): 125 g ai/ha; for Pigweed plant response rating: 500 g ai/ha, 0 to 100 scale where 0 is no effect and 100 is complete control
Outline: as §3

barnyardgrass [11] = experiment: Test A preemergence; format: in vivo, Echinochloa crus-galli; conditions: for Barnyardgrass plant response rating (0 to 100 scale, 0 is no effect, 100 is complete control): 125 g ai/ha; for Barnyardgrass plant response rating: 500 g ai/ha, 0 to 100 scale where 0 is no effect and 100 is complete control
Description: as §1, §2

velvetleaf [12] = experiment: Test A preemergence; format: in vivo, Abutilon theophrasti; conditions: for Velvetleaf plant response rating (0 to 100 scale): 125 g ai/ha; for Velvetleaf plant response rating: 500 g ai/ha, 0 to 100 scale where 0 is no effect and 100 is complete control
Outline: as §3

barnyardgrass [13] = experiment: Test A postemergence; format: in vivo, Echinochloa crus-galli; conditions: 0 to 100 scale where 0 is no effect and 100 is complete control; for Barnyardgrass plant response rating: 125 g ai/ha; for Plant response rating, Barnyardgrass: 500 g ai/ha
Outline: as §3

pigweed [14] = experiment: Test A postemergence; format: in vivo, Amaranthus retroflexus; conditions: 0 to 100 scale where 0 is no effect and 100 is complete control; for Pigweed plant response rating: 125 g ai/ha; for Plant response rating, Pigweed: 500 g ai/ha
Description: as §1, §2

morningglory [15] = experiment: Test A preemergence; format: in vivo, Ipomoea spp.; conditions: for Morningglory plant response rating (0 to 100 scale): 125 g ai/ha; for Morningglory plant response rating: 500 g ai/ha, 0 to 100 scale where 0 is no effect and 100 is complete control
Outline: as §3

giant foxtail [16] = experiment: Test A postemergence; format: in vivo, Setaria faberii; conditions: 0 to 100 scale where 0 is no effect and 100 is complete control; for Foxtail, Giant plant response rating: 125 g ai/ha; for Plant response rating, Foxtail, Giant: 500 g ai/ha
Description: as §1, §2

barnyardgrass [17] = experiment: Test B flooded paddy test; format: in vivo, Echinochloa crus-galli; conditions: Flood, 250 g ai/ha; 0 to 100 scale where 0 is no effect and 100 is complete control
Outline: as §5

sedge, umbrella = experiment: Test B flooded paddy test; format: in vivo, Cyperus difformis; conditions: Flood, 250 g ai/ha; 0 to 100 scale where 0 is no effect and 100 is complete control
Description: as §4

Compound | Morningglory plant response rating (morningglory [1]) | Plant response rating, Morningglory (morningglory [1]) | Wheat plant response rating (wheat [2]) | Plant response rating, Wheat (wheat [2]) | Corn plant response rating (corn [3]) | Plant response rating, Corn (corn [3]) | Plant response rating, Rice (rice) | Wheat plant response rating (0 to 100 scale) (wheat [4]) | Wheat plant response rating (wheat [4]) | Foxtail, Giant plant response rating (0 to 100 scale) (giant foxtail [5]) | Foxtail, Giant plant response rating (giant foxtail [5]) | Crabgrass, Large plant response rating (large (Lg) crabgrass [6]) | Plant response rating, Crabgrass, Large (large (Lg) crabgrass [6]) | Corn plant response rating (0 to 100 scale) (corn [7]) | Corn plant response rating (corn [7]) | Crabgrass, Large plant response rating (0 to 100 scale) (large (Lg) crabgrass [8]) | Crabgrass, Large plant response rating (large (Lg) crabgrass [8]) | Velvetleaf plant response rating (velvetleaf [9]) | Plant response rating, Velvetleaf (velvetleaf [9]) | Plant response rating, Ducksalad (Heteranthera limosa) | other results
C#Cc1cccc(Oc2ncc(Cl)cn2)c1-n1cc(Br)cn1 [Compound 199] | 40 | 60 | 0 | 30 | 20 | 60 | 20 | 0 | 0 | 90 | 100 | 40 | 90 | 0 | 0 | 100 | 100 | 70 | 100 | 70 | Pigweed plant response rating (0 to 100 scale) (pigweed [10]): 90; Pigweed plant response rating (pigweed [10]): 100; Barnyardgrass plant response rating (0 to 100 scale, 0 is no effect, 100 is complete control) (barnyardgrass [11]): 20; Barnyardgrass plant response rating (barnyardgrass [11]): 80; Velvetleaf plant response rating (0 to 100 scale) (velvetleaf [12]): 20; Velvetleaf plant response rating (velvetleaf [12]): 90; Barnyardgrass plant response rating (barnyardgrass [13]): 30; Plant response rating, Barnyardgrass (barnyardgrass [13]): 80; Pigweed plant response rating (pigweed [14]): 80; Plant response rating, Pigweed (pigweed [14]): 100; Morningglory plant response rating (0 to 100 scale) (morningglory [15]): 0; Morningglory plant response rating (morningglory [15]): 20; Foxtail, Giant plant response rating (giant foxtail [16]): 70; Plant response rating, Foxtail, Giant (giant foxtail [16]): 90; Plant response rating, Barnyardgrass (barnyardgrass [17]): 0; Plant response rating, Sedge, Umbrella (sedge, umbrella): 70
FC(F)c1cccc(Oc2ncc(Br)cn2)c1-n1cc(Cl)cn1 [Compound 210] | 20 | 30 | 0 | 0 | 10 | 30 | 15 | 0 | 0 | 100 | 100 | 40 | 70 | 0 | 0 | 100 | 100 | 60 | 80 | 75 | Pigweed plant response rating (0 to 100 scale) (pigweed [10]): 100; Pigweed plant response rating (pigweed [10]): 100; Barnyardgrass plant response rating (0 to 100 scale, 0 is no effect, 100 is complete control) (barnyardgrass [11]): 10; Barnyardgrass plant response rating (barnyardgrass [11]): 70; Velvetleaf plant response rating (0 to 100 scale) (velvetleaf [12]): 20; Velvetleaf plant response rating (velvetleaf [12]): 60; Barnyardgrass plant response rating (barnyardgrass [13]): 20; Plant response rating, Barnyardgrass (barnyardgrass [13]): 40; Pigweed plant response rating (pigweed [14]): 100; Plant response rating, Pigweed (pigweed [14]): 100; Morningglory plant response rating (0 to 100 scale) (morningglory [15]): 0; Morningglory plant response rating (morningglory [15]): 0; Foxtail, Giant plant response rating (giant foxtail [16]): 30; Plant response rating, Foxtail, Giant (giant foxtail [16]): 60; Plant response rating, Barnyardgrass (barnyardgrass [17]): 0; Plant response rating, Sedge, Umbrella (sedge, umbrella): 60

Source: patent US9695155B2, “Herbicidal substituted pyrimidinyloxy benzene compounds” (E. I. DU PONT DE NEMOURS AND COMPANY, priority 2013, dated 2017)
